Test results as given in paper PMC5538713, “RORγt and RORα signature genes in human Th17 cells” (PLoS ONE, 2017).
Like-named read-outs stand apart in the source and are kept apart here.

What was measured:
[1] = tested on: ML1; experiment: Cerep selectivity panel; assay type: binding
[2] = target: T1, Ab1 (h) (Homo sapiens, UniProt P08588); experiment: Cerep selectivity panel; assay type: binding; conditions: for inhibition at 1 µM: read-out: % Inhibition at 1µM; for inhibition at 10 µM: read-out: % Inhibition at 10µM
T1 construct: purchased Cerep
T1 sequence (P08588 whole entry): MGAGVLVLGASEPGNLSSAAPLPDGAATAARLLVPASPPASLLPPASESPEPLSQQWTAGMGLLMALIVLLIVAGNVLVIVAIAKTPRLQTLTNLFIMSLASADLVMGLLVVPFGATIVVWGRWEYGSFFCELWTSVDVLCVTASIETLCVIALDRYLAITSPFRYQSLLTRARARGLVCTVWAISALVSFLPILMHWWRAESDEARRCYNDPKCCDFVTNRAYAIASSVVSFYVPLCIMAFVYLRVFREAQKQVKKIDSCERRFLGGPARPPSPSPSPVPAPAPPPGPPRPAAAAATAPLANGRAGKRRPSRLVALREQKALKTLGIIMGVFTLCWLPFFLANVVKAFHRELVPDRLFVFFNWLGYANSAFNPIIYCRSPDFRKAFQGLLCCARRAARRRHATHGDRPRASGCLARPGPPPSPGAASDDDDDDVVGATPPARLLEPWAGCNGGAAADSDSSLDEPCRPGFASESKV
Experimental: (§1) Supplementary file pone.0181868.s003.docx: S3 Table Selectivity profile of RORγt inverse agonists A, B, C and D. Compounds were evaluated at 1 μM and 10 μM in a panel of assays against 50 receptors, ion channels and transporters (Profile service by Cerep Inc.). (DOCX) Click here for additional data file.
(§2) S3 Table. RORɣt inverse agonists A, B, C and D were evaluated at 1 µM and 10 µM in a panel of assays against 50 receptors, ion channels and transporters (Profile service by Cerep Inc.).

[3] = target: T2, MC4 (h) (Homo sapiens, UniProt P32245); experiment: Cerep selectivity panel; assay type: binding; conditions: for inhibition at 10 µM: read-out: % Inhibition at 10µM; for inhibition at 1 µM: read-out: % Inhibition at 1µM
T2 construct: purchased Cerep
T2 sequence (P32245 whole entry): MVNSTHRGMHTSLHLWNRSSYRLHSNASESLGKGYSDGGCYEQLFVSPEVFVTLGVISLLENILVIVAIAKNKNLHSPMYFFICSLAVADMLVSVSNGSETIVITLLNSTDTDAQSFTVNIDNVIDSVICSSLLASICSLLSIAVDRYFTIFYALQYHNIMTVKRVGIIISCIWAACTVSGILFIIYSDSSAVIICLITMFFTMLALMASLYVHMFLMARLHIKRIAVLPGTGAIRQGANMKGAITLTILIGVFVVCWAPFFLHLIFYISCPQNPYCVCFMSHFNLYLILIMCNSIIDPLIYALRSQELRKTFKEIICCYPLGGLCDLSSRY
Experimental: as §1, §2

[4] = target: T3, NK3 (h) (Homo sapiens, UniProt P29371); experiment: Cerep selectivity panel; assay type: binding; conditions: for inhibition at 1 µM: read-out: % Inhibition at 1µM; for inhibition at 10 µM: read-out: % Inhibition at 10µM
T3 construct: purchased Cerep
T3 sequence (P29371 1-465): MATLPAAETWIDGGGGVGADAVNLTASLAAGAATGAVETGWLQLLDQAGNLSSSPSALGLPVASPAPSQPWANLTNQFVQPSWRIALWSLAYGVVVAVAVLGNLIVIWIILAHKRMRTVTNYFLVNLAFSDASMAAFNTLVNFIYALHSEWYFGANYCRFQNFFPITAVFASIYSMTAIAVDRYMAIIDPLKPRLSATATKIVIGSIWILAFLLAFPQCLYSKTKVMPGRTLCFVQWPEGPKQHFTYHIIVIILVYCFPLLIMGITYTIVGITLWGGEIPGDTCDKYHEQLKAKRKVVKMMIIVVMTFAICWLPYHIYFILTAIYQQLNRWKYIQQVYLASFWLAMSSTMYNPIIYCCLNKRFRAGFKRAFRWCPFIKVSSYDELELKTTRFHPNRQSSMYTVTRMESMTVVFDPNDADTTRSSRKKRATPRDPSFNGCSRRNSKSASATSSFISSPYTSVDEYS
Experimental: as §1, §2

[5] = target: T4, NE-T (Homo sapiens, UniProt P23975); experiment: Cerep selectivity panel; assay type: binding; conditions: for inhibition at 1 µM: read-out: % Inhibition at 1µM; for inhibition at 10 µM: read-out: % Inhibition at 10µM
T4 construct: purchased Cerep
T4 sequence (P23975 whole entry): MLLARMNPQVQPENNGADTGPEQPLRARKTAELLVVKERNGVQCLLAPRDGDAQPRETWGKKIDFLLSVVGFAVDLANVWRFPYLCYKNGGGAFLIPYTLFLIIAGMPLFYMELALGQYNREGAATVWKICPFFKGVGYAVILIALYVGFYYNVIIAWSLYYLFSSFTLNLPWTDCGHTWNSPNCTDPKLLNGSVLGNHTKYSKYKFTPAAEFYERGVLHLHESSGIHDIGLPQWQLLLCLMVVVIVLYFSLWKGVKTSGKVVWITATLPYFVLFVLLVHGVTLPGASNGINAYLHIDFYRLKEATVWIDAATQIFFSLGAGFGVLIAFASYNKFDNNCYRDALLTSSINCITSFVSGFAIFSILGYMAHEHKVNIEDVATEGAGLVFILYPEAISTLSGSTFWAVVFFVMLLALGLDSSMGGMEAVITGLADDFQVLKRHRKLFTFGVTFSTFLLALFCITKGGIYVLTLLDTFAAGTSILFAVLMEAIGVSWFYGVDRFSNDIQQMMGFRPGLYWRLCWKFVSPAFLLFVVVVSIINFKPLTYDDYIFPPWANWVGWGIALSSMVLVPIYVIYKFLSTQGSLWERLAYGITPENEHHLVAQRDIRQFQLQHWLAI
Experimental: as §1, §2

[6] = target: T5, AT1 (h) (Homo sapiens, UniProt P30556); experiment: Cerep selectivity panel; assay type: binding; conditions: for inhibition at 1 µM: read-out: % Inhibition at 1µM; for inhibition at 10 µM: read-out: % Inhibition at 10µM
T5 construct: purchased Cerep
T5 sequence (P30556 1-359): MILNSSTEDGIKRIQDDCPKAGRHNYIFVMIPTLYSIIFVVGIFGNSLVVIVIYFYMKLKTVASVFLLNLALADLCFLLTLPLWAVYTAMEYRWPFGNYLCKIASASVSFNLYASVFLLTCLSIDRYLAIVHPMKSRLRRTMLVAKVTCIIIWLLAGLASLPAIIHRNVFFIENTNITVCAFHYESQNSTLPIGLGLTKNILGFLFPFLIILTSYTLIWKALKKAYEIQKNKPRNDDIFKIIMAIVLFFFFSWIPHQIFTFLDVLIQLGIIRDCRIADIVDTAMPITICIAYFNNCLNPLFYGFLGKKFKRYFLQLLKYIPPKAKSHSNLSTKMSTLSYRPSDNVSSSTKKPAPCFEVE
Experimental: as §1, §2

[7] = target: T6, 5HT2A (h) (Homo sapiens, UniProt P28223); experiment: Cerep selectivity panel; assay type: binding; conditions: read-out: % Inhibition at 10µM
T6 construct: purchased Cerep
T6 sequence (P28223 whole entry): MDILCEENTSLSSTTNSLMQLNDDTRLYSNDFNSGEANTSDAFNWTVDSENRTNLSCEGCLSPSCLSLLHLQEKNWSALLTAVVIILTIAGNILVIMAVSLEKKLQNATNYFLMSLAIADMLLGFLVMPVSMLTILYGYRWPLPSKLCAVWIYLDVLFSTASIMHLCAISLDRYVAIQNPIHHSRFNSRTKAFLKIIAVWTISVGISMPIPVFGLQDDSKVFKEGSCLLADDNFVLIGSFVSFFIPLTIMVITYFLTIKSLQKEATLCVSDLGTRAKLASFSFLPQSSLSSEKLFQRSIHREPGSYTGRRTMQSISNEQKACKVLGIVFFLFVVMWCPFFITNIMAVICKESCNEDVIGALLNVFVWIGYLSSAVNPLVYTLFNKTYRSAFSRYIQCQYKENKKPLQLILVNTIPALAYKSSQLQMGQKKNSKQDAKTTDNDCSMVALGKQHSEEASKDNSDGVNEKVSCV
Experimental: as §1, §2

[8] = target: T7, D2S (h) (Homo sapiens, UniProt P14416); experiment: Cerep selectivity panel; assay type: binding; conditions: for inhibition at 1 µM: read-out: % Inhibition at 1µM; for inhibition at 10 µM: read-out: % Inhibition at 10µM
T7 construct: purchased Cerep
T7 sequence (P14416 1-414 isoform P14416-2): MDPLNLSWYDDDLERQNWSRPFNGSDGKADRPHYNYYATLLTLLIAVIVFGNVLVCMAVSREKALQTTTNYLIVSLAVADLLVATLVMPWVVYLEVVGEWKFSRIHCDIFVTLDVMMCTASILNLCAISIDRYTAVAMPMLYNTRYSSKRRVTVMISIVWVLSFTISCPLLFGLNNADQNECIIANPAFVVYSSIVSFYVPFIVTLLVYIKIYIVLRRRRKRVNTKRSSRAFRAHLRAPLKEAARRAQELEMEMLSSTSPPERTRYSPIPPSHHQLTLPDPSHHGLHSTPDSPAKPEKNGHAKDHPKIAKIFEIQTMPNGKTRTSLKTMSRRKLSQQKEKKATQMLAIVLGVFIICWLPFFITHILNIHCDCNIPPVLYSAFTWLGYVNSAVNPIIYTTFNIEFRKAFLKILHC
Experimental: as §1, §2

[9] = target: T8, 5HT5A (h) (Homo sapiens, UniProt P47898); experiment: Cerep selectivity panel; assay type: binding; conditions: for inhibition at 1 µM: read-out: % Inhibition at 1µM; for inhibition at 10 µM: read-out: % Inhibition at 10µM
T8 construct: purchased Cerep
T8 sequence (P47898 whole entry): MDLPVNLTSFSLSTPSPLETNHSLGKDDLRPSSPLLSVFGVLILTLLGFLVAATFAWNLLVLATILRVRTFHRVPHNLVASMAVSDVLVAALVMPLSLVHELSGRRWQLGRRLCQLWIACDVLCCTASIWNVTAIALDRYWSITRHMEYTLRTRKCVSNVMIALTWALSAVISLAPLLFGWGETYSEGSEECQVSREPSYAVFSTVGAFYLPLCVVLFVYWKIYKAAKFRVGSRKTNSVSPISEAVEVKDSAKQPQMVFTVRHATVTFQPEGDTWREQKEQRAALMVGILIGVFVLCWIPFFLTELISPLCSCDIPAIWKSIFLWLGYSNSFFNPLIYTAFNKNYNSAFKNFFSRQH
Experimental: as §1, §2

[10] = target: T9, 5HT3 (h) (Homo sapiens, UniProt P46098); experiment: Cerep selectivity panel; assay type: binding; conditions: for inhibition at 1 µM: read-out: % Inhibition at 1µM; for inhibition at 10 µM: read-out: % Inhibition at 10µM
T9 construct: purchased Cerep
T9 sequence (P46098 24-478): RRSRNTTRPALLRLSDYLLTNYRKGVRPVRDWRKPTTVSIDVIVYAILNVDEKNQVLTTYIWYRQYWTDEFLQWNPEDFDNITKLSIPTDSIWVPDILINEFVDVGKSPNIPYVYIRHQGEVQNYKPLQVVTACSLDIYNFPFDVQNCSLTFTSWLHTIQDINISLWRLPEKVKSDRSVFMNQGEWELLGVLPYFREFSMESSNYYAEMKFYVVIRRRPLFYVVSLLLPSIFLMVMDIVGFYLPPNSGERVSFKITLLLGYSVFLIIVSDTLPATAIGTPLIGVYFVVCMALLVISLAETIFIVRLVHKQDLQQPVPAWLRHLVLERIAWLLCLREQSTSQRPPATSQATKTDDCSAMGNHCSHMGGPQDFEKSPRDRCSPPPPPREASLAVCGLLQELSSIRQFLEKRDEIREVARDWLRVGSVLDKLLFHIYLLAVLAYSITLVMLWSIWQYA
Experimental: as §1, §2

[11] = target: T10, A2A (h) (Homo sapiens, UniProt P29274); experiment: Cerep selectivity panel; assay type: binding; conditions: for inhibition at 1 µM: read-out: % Inhibition at 1µM; for inhibition at 10 µM: read-out: % Inhibition at 10µM
T10 construct: purchased Cerep
T10 sequence (P29274 whole entry): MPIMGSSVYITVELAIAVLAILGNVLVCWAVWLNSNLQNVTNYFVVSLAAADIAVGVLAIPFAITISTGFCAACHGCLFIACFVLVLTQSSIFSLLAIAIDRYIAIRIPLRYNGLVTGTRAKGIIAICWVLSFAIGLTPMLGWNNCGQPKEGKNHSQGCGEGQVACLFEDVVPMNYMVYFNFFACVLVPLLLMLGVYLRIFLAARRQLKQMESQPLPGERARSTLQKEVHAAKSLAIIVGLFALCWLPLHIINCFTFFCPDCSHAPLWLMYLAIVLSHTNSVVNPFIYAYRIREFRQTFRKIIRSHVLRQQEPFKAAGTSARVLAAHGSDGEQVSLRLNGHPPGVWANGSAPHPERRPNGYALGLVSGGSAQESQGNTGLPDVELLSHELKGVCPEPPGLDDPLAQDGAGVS
Experimental: as §1, §2

[12] = tested on: human CD4 T cells, IFNγ production; experiment: Th1 differentiation assay (IFNγ production); assay type: cell-based; conditions: 72 h
[13] = tested on: OP2; experiment: Cerep selectivity panel; assay type: binding
[14] = tested on: human CD4 T cells under Th17 conditions; experiment: cells; conditions: read-out: Th17 Proliferation (IC50, nM)
[15] = Homo sapiens, CD4+ T, read-out: Th1 Differentiation (IFNγ production) (IC50, nM)

In the case of `COc1nc2ccc([C@@](O)(c3ccc(C)nc3C)c3cnnn3C)cc2c(Cl)c1Cc1ccc(C(F)(F)F)cc1` [compound A], the “% Inhibition at 10µM” value [1] is reported as 39%, the inhibition at 1 µM ([2]; Ab1 (h), 1 µM) is reported as 0% and the inhibition at 10 µM ([2]; Ab1 (h), 10 µM) is reported as 10%. The inhibition at 10 µM ([3]; MC4 (h), 10 µM) was 9%, the inhibition at 1 µM ([4]; NK3 (h), 1 µM) was 9% and the inhibition at 10 µM ([4]; NK3 (h), 10 µM) was 57%. The inhibition at 1 µM ([5]; NE-T, 1 µM) was 44%, the inhibition at 10 µM ([5]; NE-T, 10 µM) was 86% and the inhibition at 1 µM ([6]; AT1 (h), 1 µM) was 0%. It also gave an inhibition at 10 µM ([6]; AT1 (h), 10 µM) of 32%, an inhibition at 10 µM ([7]; 5HT2A (h), 10 µM) of 27% and an inhibition at 1 µM ([8]; D2S (h), 1 µM) of 12%. The inhibition at 10 µM ([8]; D2S (h), 10 µM) was 70%, the inhibition at 1 µM ([9]; 5HT5A (h), 1 µM) was 7% and the inhibition at 10 µM ([9]; 5HT5A (h), 10 µM) was 84%. For the same molecule, the inhibition at 1 µM ([10]; 5HT3 (h), 1 µM) was 7%, the inhibition at 10 µM ([10]; 5HT3 (h), 10 µM) was 29% and the inhibition at 1 µM ([11]; A2A (h), 1 µM) was 20%. The inhibition at 10 µM ([11]; A2A (h), 10 µM) was 5%, the IC50 ([12]; human CD4 T cells, 3 days, read-out: Th1 Differentiation (IFNγ production) (IC50)) was over 240 nM and the “% Inhibition at 1µM” value ([13]; 1 µM) was 9%. The “% Inhibition at 10µM” value [13] was 37% and the IC50 [14] was over 240 nM.

Molecule `CN(C)c1nc2ccc(C(O)(c3ccncc3)c3cncn3C)cc2c(Cl)c1-c1ccccc1` (centres unmarked) [compound D] has an inhibition at 1 µM [2] of 3%, an inhibition at 10 µM [2] of 2% and an inhibition at 1 µM [3] of 3%. It also gave an inhibition at 10 µM [3] of 25%, an inhibition at 10 µM [4] of 45% and an inhibition at 1 µM [5] of 5%. For the same molecule, the inhibition at 10 µM [5] was 76%, the inhibition at 10 µM [6] was 28% and the inhibition at 10 µM [7] was 22%. The inhibition at 1 µM [8] was 7%, the inhibition at 10 µM [8] was 25% and the inhibition at 10 µM [9] was 42%. For the same molecule, the inhibition at 1 µM [10] was 8%, the inhibition at 10 µM [10] was 17% and the inhibition at 1 µM [11] was 2%. For the same molecule, the inhibition at 10 µM [11] was 43% and the IC50 [12, 15] was over 240 nM.

`COc1nc2ccc([C@@](O)(c3ccccc3)C3CCN(C(C)=O)CC3)cc2c(Cl)c1Cc1ccc(-n2cccn2)cc1` [C] was tested, and the “% Inhibition at 1µM” value [1] was 4%, the “% Inhibition at 10µM” value [1] was 27% and the inhibition at 1 µM [3] was 14%. It also gave an inhibition at 1 µM [4] of 21%, an inhibition at 10 µM [4] of 31% and an inhibition at 1 µM [5] of 19%. For the same molecule, the inhibition at 10 µM [5] was 38%, the inhibition at 10 µM [6] was 11% and the inhibition at 1 µM [8] was 10%. The inhibition at 1 µM [9] was 13%, the inhibition at 10 µM [9] was 23% and the inhibition at 10 µM [10] was 18%. It also gave an inhibition at 1 µM [11] of 18%, an inhibition at 10 µM [11] of 21% and an IC50 [12, 15] of over 240 nM. The “% Inhibition at 10µM” value [13] was 12% and the IC50 [14] was over 240 nM.

In the case of `COc1nc2ccc([C@](O)(c3ccc(Cl)cc3)c3cncn3C)cc2c(Cl)c1Cc1ccc(-n2cccn2)cc1` [B], the “% Inhibition at 1µM” value [1] is reported as 13%, the “% Inhibition at 10µM” value [1] is reported as 38% and the inhibition at 1 µM [2] is reported as 0%. For the same molecule, the inhibition at 10 µM [2] was 2%, the inhibition at 10 µM [3] was 6% and the inhibition at 1 µM [4] was 1%. It also gave an inhibition at 10 µM [4] of 10%, an inhibition at 1 µM [5] of 21% and an inhibition at 10 µM [5] of 38%. The inhibition at 1 µM [6] was 1%, the inhibition at 10 µM [6] was 16% and the inhibition at 10 µM [7] was 12%. The inhibition at 1 µM [8] was 7%, the inhibition at 1 µM [9] was 25% and the inhibition at 10 µM [9] was 31%. For the same molecule, the inhibition at 1 µM [10] was 16%, the inhibition at 10 µM [10] was 19% and the IC50 [12, 15] was over 240 nM. The “% Inhibition at 10µM” value [13] was 10% and the IC50 [14] was over 240 nM.
